Laboratory results reported in the NIST ThermoML archive (doi:10.1021/je800110r).
“And” between values parts separate entries of the source, which are not always exact repeats. Equal values may be shown once.

Details: 303.16 K, Liquid, Vibrating tube method

CCCCCCCCCC [decane]
Details	mass density
4941 kPa	726.2 kg/m3
4955 kPa	726.3 kg/m3
4969 kPa	726.3 kg/m3
4979 kPa	726.4 kg/m3
4994 kPa	726.4 kg/m3
5007 kPa	726.3 kg/m3
5019 kPa	726.4 kg/m3
5029 kPa	726.4 kg/m3
5041 kPa	726.3 kg/m3
5052 kPa	726.3 kg/m3
5065 kPa	726.4 kg/m3
5075 kPa	726.5 kg/m3
5091 kPa	726.4 kg/m3
5107 kPa	726.5 kg/m3
5119 kPa	726.6 kg/m3
5129 kPa	726.5 kg/m3
5140 kPa	726.5 kg/m3
5153 kPa	726.4 kg/m3
5167 kPa	726.5 kg/m3
5177 kPa	726.4 kg/m3
5193 kPa	726.4 kg/m3
5209 kPa	726.4 kg/m3
5220 kPa	726.6 kg/m3
5236 kPa	726.5 kg/m3
5251 kPa	726.5 kg/m3
5261 kPa	726.5 kg/m3
5276 kPa	726.5 kg/m3
5292 kPa	726.5 kg/m3
5309 kPa	726.5 kg/m3
5318 kPa	726.4 kg/m3
5331 kPa	726.6 kg/m3
5342 kPa	726.7 kg/m3
5359 kPa	726.6 kg/m3
5374 kPa	726.6 kg/m3
5385 kPa	726.6 kg/m3
5399 kPa	726.5 kg/m3
5412 kPa	726.5 kg/m3
5427 kPa	726.7 kg/m3
5443 kPa	726.6 kg/m3
5459 kPa	726.7 kg/m3
5473 kPa	726.7 kg/m3
5488 kPa	726.8 kg/m3
5501 kPa	726.6 kg/m3
5514 kPa	726.8 kg/m3
5532 kPa	726.8 kg/m3
5548 kPa	726.7 kg/m3
5562 kPa	726.8 kg/m3
5576 kPa	726.8 kg/m3
5593 kPa	726.8 kg/m3
5607 kPa	726.8 kg/m3
5626 kPa	726.8 kg/m3
5642 kPa	726.8 kg/m3
5655 kPa	726.8 kg/m3
5674 kPa	726.9 kg/m3
5690 kPa	726.9 kg/m3
5705 kPa	726.8 kg/m3
5723 kPa	727 kg/m3
5738 kPa	726.9 kg/m3
5751 kPa	726.9 kg/m3
5770 kPa	727 kg/m3
5791 kPa	727 kg/m3
5803 kPa	726.9 kg/m3
5819 kPa	727 kg/m3
5834 kPa	726.9 kg/m3
5851 kPa	726.9 kg/m3
5864 kPa	727 kg/m3
5873 kPa	727 kg/m3
5878 kPa	727 kg/m3
5884 kPa	727 kg/m3
5887 kPa	727.1 kg/m3
5896 kPa	727.1 kg/m3
5908 kPa	727.1 kg/m3
5926 kPa	727.1 kg/m3
5940 kPa	727 kg/m3
5954 kPa	727 kg/m3
5971 kPa	727.1 kg/m3
5986 kPa	727.1 kg/m3
6008 kPa	727 kg/m3
6029 kPa	727.1 kg/m3
6044 kPa	727.2 kg/m3
6063 kPa	727 kg/m3
6080 kPa	727.3 kg/m3
6100 kPa	727.2 kg/m3
6118 kPa	727.1 kg/m3
6139 kPa	727.3 kg/m3
6161 kPa	727.3 kg/m3
6178 kPa	727.2 kg/m3
6196 kPa	727.2 kg/m3
6201 kPa	727 kg/m3
6204 kPa	727.3 kg/m3
6205 kPa	727.3 kg/m3
6209 kPa	727.3 kg/m3
6210 kPa	727.2 kg/m3
6211 kPa	727.3 kg/m3
6212 kPa	727.3 kg/m3
6213 kPa	727.3 kg/m3
6214 kPa	727.2 kg/m3
6215 kPa	727.3 kg/m3 and 727.2 kg/m3
6216 kPa	727.2 kg/m3 and 727.3 kg/m3 and 727.4 kg/m3
6222 kPa	727.3 kg/m3
6239 kPa	727.2 kg/m3
6255 kPa	727.3 kg/m3
6262 kPa	727.4 kg/m3
6278 kPa	727.2 kg/m3
6282 kPa	727.3 kg/m3
6283 kPa	727.3 kg/m3
6306 kPa	727.4 kg/m3
6327 kPa	727.3 kg/m3
6345 kPa	727.4 kg/m3
6368 kPa	727.4 kg/m3
6383 kPa	727.4 kg/m3
6399 kPa	727.5 kg/m3
6414 kPa	727.4 kg/m3
6427 kPa	727.5 kg/m3
6451 kPa	727.5 kg/m3
6470 kPa	727.5 kg/m3
6485 kPa	727.6 kg/m3
6507 kPa	727.4 kg/m3
6524 kPa	727.5 kg/m3
6545 kPa	727.6 kg/m3
6560 kPa	727.5 kg/m3
6580 kPa	727.5 kg/m3
6598 kPa	727.6 kg/m3
6621 kPa	727.7 kg/m3
6642 kPa	727.6 kg/m3
6661 kPa	727.7 kg/m3
6684 kPa	727.7 kg/m3
6705 kPa	727.6 kg/m3
6721 kPa	727.6 kg/m3
6735 kPa	727.7 kg/m3
6759 kPa	727.7 kg/m3
6783 kPa	727.8 kg/m3
6799 kPa	727.7 kg/m3
6818 kPa	727.8 kg/m3
6841 kPa	727.7 kg/m3
6864 kPa	727.8 kg/m3
6881 kPa	727.9 kg/m3
6904 kPa	727.9 kg/m3
6929 kPa	727.9 kg/m3
6949 kPa	727.9 kg/m3
6969 kPa	727.8 kg/m3
6992 kPa	727.8 kg/m3
7009 kPa	728 kg/m3
7035 kPa	727.9 kg/m3
7053 kPa	728 kg/m3
7084 kPa	727.9 kg/m3
7102 kPa	728 kg/m3
7120 kPa	727.9 kg/m3
7147 kPa	728 kg/m3
7171 kPa	728 kg/m3
7193 kPa	728 kg/m3
7215 kPa	728.1 kg/m3
7235 kPa	728.1 kg/m3
7258 kPa	728.1 kg/m3
7279 kPa	728.1 kg/m3
7295 kPa	728 kg/m3
7309 kPa	728.1 kg/m3
7326 kPa	728.1 kg/m3
7343 kPa	728.2 kg/m3
7357 kPa	728.1 kg/m3
7371 kPa	728.2 kg/m3
7388 kPa	728.3 kg/m3
7403 kPa	728.1 kg/m3
7422 kPa	728.3 kg/m3
7442 kPa	728.3 kg/m3
7459 kPa	728.3 kg/m3
7474 kPa	728.2 kg/m3
7491 kPa	728.3 kg/m3
7511 kPa	728.2 kg/m3
7532 kPa	728.4 kg/m3
7549 kPa	728.3 kg/m3
7567 kPa	728.3 kg/m3
7588 kPa	728.4 kg/m3
7605 kPa	728.4 kg/m3
7626 kPa	728.4 kg/m3
7644 kPa	728.3 kg/m3
7665 kPa	728.5 kg/m3
7683 kPa	728.3 kg/m3
7699 kPa	728.5 kg/m3
7720 kPa	728.4 kg/m3
7737 kPa	728.4 kg/m3
7756 kPa	728.5 kg/m3
7783 kPa	728.5 kg/m3
7802 kPa	728.5 kg/m3
7819 kPa	728.5 kg/m3
7847 kPa	728.5 kg/m3
7867 kPa	728.5 kg/m3
7880 kPa	728.5 kg/m3
7901 kPa	728.6 kg/m3
7922 kPa	728.6 kg/m3
7936 kPa	728.6 kg/m3
7957 kPa	728.7 kg/m3
7974 kPa	728.6 kg/m3
7993 kPa	728.7 kg/m3
8014 kPa	728.6 kg/m3
8028 kPa	728.7 kg/m3
8052 kPa	728.6 kg/m3
8069 kPa	728.7 kg/m3
8088 kPa	728.7 kg/m3
8105 kPa	728.8 kg/m3
8124 kPa	728.7 kg/m3
8139 kPa	728.7 kg/m3
8157 kPa	728.8 kg/m3
8172 kPa	728.9 kg/m3
8191 kPa	728.8 kg/m3
8214 kPa	728.9 kg/m3
8229 kPa	728.9 kg/m3
8249 kPa	728.8 kg/m3
8265 kPa	728.8 kg/m3
8287 kPa	728.9 kg/m3
8313 kPa	729 kg/m3
8328 kPa	728.9 kg/m3
8349 kPa	728.9 kg/m3
8365 kPa	729 kg/m3
8382 kPa	729.1 kg/m3
8400 kPa	729.1 kg/m3
8417 kPa	729 kg/m3
8439 kPa	728.9 kg/m3
8459 kPa	729 kg/m3
8476 kPa	729.1 kg/m3
8493 kPa	729.1 kg/m3
8509 kPa	729 kg/m3
8529 kPa	729 kg/m3
8546 kPa	729.1 kg/m3
8561 kPa	729.2 kg/m3
8582 kPa	729.1 kg/m3
8601 kPa	729.2 kg/m3
8617 kPa	729.2 kg/m3
8632 kPa	729.2 kg/m3
8647 kPa	729.2 kg/m3
8663 kPa	729.2 kg/m3
8682 kPa	729.2 kg/m3
8699 kPa	729.2 kg/m3
8715 kPa	729.2 kg/m3
8730 kPa	729.2 kg/m3
8742 kPa	729.3 kg/m3
8752 kPa	729.3 kg/m3
8768 kPa	729.2 kg/m3
8778 kPa	729.3 kg/m3
8792 kPa	729.2 kg/m3
8807 kPa	729.4 kg/m3
8821 kPa	729.3 kg/m3
8831 kPa	729.3 kg/m3
8847 kPa	729.2 kg/m3
8862 kPa	729.3 kg/m3
8874 kPa	729.2 kg/m3
8884 kPa	729.4 kg/m3
8895 kPa	729.3 kg/m3
8905 kPa	729.3 kg/m3
8920 kPa	729.4 kg/m3
8936 kPa	729.4 kg/m3
8948 kPa	729.4 kg/m3
8961 kPa	729.5 kg/m3
8973 kPa	729.4 kg/m3
8986 kPa	729.4 kg/m3
8998 kPa	729.5 kg/m3
9014 kPa	729.5 kg/m3
9025 kPa	729.4 kg/m3
9040 kPa	729.5 kg/m3
9051 kPa	729.5 kg/m3
9064 kPa	729.4 kg/m3
9075 kPa	729.5 kg/m3
9092 kPa	729.6 kg/m3
9107 kPa	729.6 kg/m3
9118 kPa	729.5 kg/m3
9133 kPa	729.6 kg/m3
9151 kPa	729.6 kg/m3
9166 kPa	729.5 kg/m3
9179 kPa	729.5 kg/m3
9192 kPa	729.6 kg/m3
9204 kPa	729.6 kg/m3
9219 kPa	729.7 kg/m3
9237 kPa	729.6 kg/m3
9251 kPa	729.6 kg/m3
